The source of these data is ChEMBL document CHEMBL1201862, “PubChem BioAssay data set” (2004).

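48-hour exposure; five concentrations; linearly interpolated endpoints. GI50 marks 50% less growth.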 Calls of active or inactive are those of the source. No stated cut-off is given here; in the data, active = GI50 up to about 1.1 µM and inactive = higher.

Assay in all cases: DTP human tumour cell line panel, 48 h
Assay [1] relates to NCI-H226.
Assay [2] has as its system SK-MEL-28.
Assay [3] deals with UACC-257.
The test system of assay [4] is EKVX.
In assay [5] the test system is SK-OV-3.
The subject of assay [6] is HL-60.
In assay [7] the test system is K562.
The test system of assay [8] is HOP-92.
Assay [9] has as its system HOP-62.
For assay [10], the system named is COLO 205.
Assay [11] concerns PC-3.
Assay [12] deals with NCI-H23.
In assay [13] the test system is HCT-116.
The subject of assay [14] is Hs-578T.
In assay [15] the test system is T47D.
Assay [16] relates to SNB-75.
Assay [17] relates to SK-MEL-5.
Assay [18] concerns HCT-15.
In assay [19] the test system is MDA-MB-435.

A word on the GI50: it is the concentration at which growth is held to half of that of the control. For the compound `O=S(=O)(c1ccc2ccccc2c1)N1CCN(S(=O)(=O)c2ccc3ccccc3c2)CC1`, the GI50 is > 100 µM (inactive) in assay [1]; > 100 µM (inactive) in assay [2]; > 100 µM (inactive) in [3]; > 100 µM (inactive) in assay [4]; 51.3 µM (inactive) in assay [5]; > 100 µM (inactive) in assay [6]. In addition, the GI50 in assay [7] was > 100 µM (inactive); in assay [8], 34.6 µM (inactive); in [9] it was 33.5 µM (inactive); in assay [10] it was > 100 µM (inactive); in assay [11] it was > 100 µM (inactive); in assay [12], > 100 µM (inactive). Moreover, the GI50 was > 100 µM (inactive) in [13]; 31 µM (inactive) in assay [14]; > 100 µM (inactive) in assay [15]; 18.9 µM (inactive) in assay [16]; > 100 µM (inactive) in [17]; above 100 µM in [18]. Moreover, the GI50 in [19] is > 100 µM (inactive).
As to `COc1cc(C2c3cc4c(cc3OC(N3CCOCC3)C2C)OCO4)cc(OC)c1OC(C)=O` (centres undefined), the GI50 in assay [1] was 17.7 µM (inactive); in assay [2] it was > 42.1 µM (inactive); in assay [3] it was 53.8 µM (inactive); in assay [4], 47.5 µM (inactive); in assay [5], 11.3 µM (inactive); in [6] it was 4.65 µM (inactive). The GI50 in assay [7] is 3.81 µM (inactive); in [8] it was 23.9 µM (inactive); in [9], 12.4 µM (inactive); in assay [10], 19.3 µM (inactive); in [11], 13.5 µM (inactive); in assay [12], 31.3 µM (inactive). Also, the GI50 in assay [13] is 7.52 µM (inactive); in assay [14], 2.2 µM (inactive); in [15], 17.4 µM (inactive); in assay [16] it was 3.74 µM (inactive); in [17], 4.46 µM (inactive); in assay [18] it was 15 µM. Further, the GI50 in [19] was 2.46 µM (inactive).
Turning to `CCOc1cc(/C=N/c2nc3cc4sc(/N=C/c5ccc(O)c(OCC)c5)nc4cc3s2)ccc1O`, the GI50 in assay [1] is 25.8 µM (inactive); in assay [2], 21.3 µM (inactive); in [3] it was > 100 µM (inactive); in assay [4], 79.1 µM (inactive); in assay [5], > 100 µM (inactive); in assay [6] it was 3.62 µM (inactive). The GI50 is 60.5 µM (inactive) in assay [7]; > 100 µM (inactive) in [8]; > 100 µM (inactive) in assay [9]; 24.7 µM (inactive) in assay [10]; > 100 µM (inactive) in assay [11]; > 100 µM (inactive) in assay [12]. For the same compound, the GI50 in assay [13] was > 100 µM (inactive); in [14] it was > 100 µM (inactive); in assay [15] it was > 100 µM (inactive); in assay [16], > 100 µM (inactive); in assay [17] it was 71.8 µM (inactive); in assay [18], above 100 µM. Moreover, in [19], the GI50 was > 100 µM (inactive).
Regarding `O=C1C=CC(=O)c2c1ccc1c3ccccc3n(-c3cccc([N+](=O)[O-])c3)c21`, the GI50 in assay [1] was > 10 µM (inactive); in assay [2], 2.84 µM (inactive); in assay [3] it was 2.62 µM (inactive); in assay [4], > 5.45 µM (inactive); in assay [5], > 10 µM (inactive); in assay [6], 0.474 µM (active). The GI50 in [7] is 0.367 µM (active); in assay [8], 2.09 µM (inactive); in [9], > 10 µM (inactive); in assay [10] it was 1.42 µM (inactive); in [11], > 8.3 µM (inactive); in assay [12] it was 2.65 µM (inactive). Moreover, the GI50 in assay [13] is 1.92 µM (inactive); in assay [14], 3.76 µM (inactive); in [15], 2.38 µM (inactive); in [16] it was > 10 µM (inactive); in [17] it was 5.57 µM (inactive); in [18] it was 2.59 µM. In addition, the GI50 in assay [19] was 2.05 µM (inactive).
`COC(=O)/C=C1/OC(c2ccc(OC)cc2)=C(Cl)C1=O`: the GI50 in assay [1] was 21.9 µM (inactive); in assay [2], 17.3 µM (inactive); in assay [3], 21.6 µM (inactive); in assay [4], 19.1 µM (inactive); in [5] it was 16.7 µM (inactive); in assay [6] it was 3.8 µM (inactive). Moreover, the GI50 in [7] is 2.73 µM (inactive); in assay [8], 23.1 µM (inactive); in assay [9] it was 20.6 µM (inactive); in [10], 9.91 µM (inactive); in assay [11], 15.2 µM (inactive); in assay [12], 17.6 µM (inactive). In addition, the GI50 was 13.5 µM (inactive) in [13]; 25.8 µM (inactive) in assay [14]; 15.3 µM (inactive) in assay [15]; 17.9 µM (inactive) in [16]; 14 µM (inactive) in assay [17]; 17.5 µM in [18]. For the same compound, the GI50 in assay [19] is 15.6 µM (inactive).
As to `OCCCNCC(O)c1ccc(OCc2ccccc2)c(OCc2ccccc2)c1` (centres undefined), the GI50 is 12.4 µM (inactive) in assay [1]; 8.95 µM (inactive) in [2]; 11.2 µM (inactive) in assay [3]; 15 µM (inactive) in [4]; 9.51 µM (inactive) in assay [5]; 6.38 µM (inactive) in [6]. In addition, the GI50 in assay [7] is 8.45 µM (inactive); in assay [8], 7.59 µM (inactive); in assay [9] it was 14.3 µM (inactive); in [10], 4.76 µM (inactive); in assay [11] it was 10.9 µM (inactive); in assay [12], 17.5 µM (inactive). Moreover, the GI50 is 8.47 µM (inactive) in assay [13]; 13.6 µM (inactive) in [14]; 15.6 µM (inactive) in assay [15]; 6.12 µM (inactive) in assay [16]; 7.03 µM (inactive) in assay [17]; 13.1 µM in [18]. The GI50 in assay [19] is 7.8 µM (inactive).
As to `COc1cc(O)c2c(O)c3c(c4c2c1[C@]1(C4)C(C)=CCCC1(C)C)[C@H](O)[C@@]1(O)CC(O)=C(C(N)=O)C(=O)[C@@]1(O)C3=O`, the GI50 is 0.239 µM (active) in [1]; 0.873 µM (active) in assay [2]; 0.231 µM (active) in [3]; 0.18 µM (active) in assay [4]; 0.348 µM (active) in assay [5]; 0.164 µM (active) in assay [6]. Also, the GI50 was 0.123 µM (active) in [7]; 0.362 µM (active) in assay [8]; 0.16 µM (active) in assay [9]; 0.108 µM (active) in assay [10]; 0.119 µM (active) in assay [11]; 0.164 µM (active) in [12]. The GI50 is 0.209 µM (active) in assay [13]; 0.147 µM (active) in assay [14]; 0.365 µM (active) in assay [15]; 0.108 µM (active) in assay [16]; 0.175 µM (active) in assay [17]; 0.164 µM in assay [18]. The GI50 in assay [19] is 0.0667 µM (active).
For `CC(NC(=O)N(C)C)NC(=O)N(C)C`, the GI50 in assay [1], in assay [2], in assay [3], in [4], in assay [5] and in assay [6] was > 10 µM (inactive) each time. Also, the GI50 in assay [7], in assay [8], in assay [9], in assay [10], in assay [11] and in assay [12] was > 10 µM (inactive) in each case. Moreover, the GI50 is > 10 µM (inactive) in assay [13]; > 10 µM (inactive) in assay [14]; > 10 µM (inactive) in [15]; > 10 µM (inactive) in assay [16]; > 10 µM (inactive) in assay [17]; above 10 µM in assay [18]. Also, in assay [19], the GI50 is > 10 µM (inactive).
As for `CN(C)CC(O)c1ccc(Cl)c2ccccc12` (centres undefined), the GI50 in assay [1] is > 27.3 µM (inactive); in assay [2] it was 19.6 µM (inactive); in assay [3], 20.9 µM (inactive); in [4], > 100 µM (inactive); in assay [5], 74 µM (inactive); in [6], 9.12 µM (inactive). Further, the GI50 in assay [7] is 1.15 µM (inactive); in [8] it was 14.2 µM (inactive); in [9], 50.8 µM (inactive); in assay [10] it was 20.6 µM (inactive); in [11] it was 36.9 µM (inactive); in assay [12] it was > 87.1 µM (inactive). Also, the GI50 in assay [13] is 50 µM (inactive); in assay [14] it was 38.2 µM (inactive); in assay [15], 21 µM (inactive); in [16], 17.4 µM (inactive); in [17] it was 16.6 µM (inactive); in assay [18], above 90.2 µM. For the same compound, the GI50 in [19] is 21.6 µM (inactive).
`O=c1[nH]nc(Cc2ccccc2)n1/N=C\CC/C=N\n1c(Cc2ccccc2)n[nH]c1=O`: the GI50 was 33.9 µM (inactive) in assay [1]; 30.1 µM (inactive) in assay [2]; > 100 µM (inactive) in assay [3]; 36.6 µM (inactive) in assay [4]; 31.3 µM (inactive) in [5]; 21.9 µM (inactive) in assay [6]. For the same compound, the GI50 in assay [7] was 36.2 µM (inactive); in [8], 41.8 µM (inactive); in assay [9], 22.1 µM (inactive); in assay [10], > 100 µM (inactive); in assay [11], 37.4 µM (inactive); in assay [12], 23 µM (inactive). The GI50 in [13] was 18.5 µM (inactive); in [14], 20.2 µM (inactive); in assay [15], 30.9 µM (inactive); in assay [16], 24.4 µM (inactive); in assay [17], 29.2 µM (inactive); in assay [18], 19.9 µM. For the same compound, in assay [19], the GI50 was 34.6 µM (inactive).
`Cc1cc(-c2nc3cc(F)ccc3s2)ccc1N`: the GI50 in assay [1] was < 0.051 µM (active); in assay [2] it was > 100 µM (inactive); in assay [3], 29.9 µM (inactive); in assay [4] it was 11.2 µM (inactive); in [5], 88.5 µM (inactive); in assay [6] it was > 28.1 µM (inactive). In addition, the GI50 in assay [7] is > 49.2 µM (inactive); in assay [8], 18.7 µM (inactive); in assay [9], 15.2 µM (inactive); in [10], 8.69 µM (inactive); in assay [11], 17 µM (inactive); in assay [12], 2.79 µM (inactive). Besides, the GI50 in assay [13] was 21.1 µM (inactive); in assay [14], 26.5 µM (inactive); in assay [15] it was < 0.01 µM (active); in assay [16] it was 20.4 µM (inactive); in [17], 42.4 µM (inactive); in [18], 7.96 µM. The GI50 in assay [19] is > 55.6 µM (inactive).
